Data on 1 compound can be found in publication PMC5007466, “VCP recruitment to mitochondria causes mitophagy impairment and neurodegeneration in models of Huntington's disease” (Nature Communications, 2016).

In test [1] the target is T1, VCP/mtHtt interaction (Homo sapiens, UniProt P55072).
T1 construct: The full-length VCP wt and GFP-LC3B plasmids were obtained from Addgene; expressed in transfected cells; host or cells: HEK293
In words: Co-immunoprecipitation of GFP-VCP and Myc-73Q FL (mtHtt) in HEK293 cells. The class given is cell-based. The following applies: HEK293, Myc-73Q FL + GFP-VCP, 48 h. As to the method: (b) Stick drawings of VCP and Htt main domains. […] Immunoprecipitates were analysed by WB with the indicated antibodies. […] VCP mitochondrial levels were determined by WB. Loading control: VDAC. Data are mean±s.e.m. (g–i) ANOVA with Holm-Sidak post hoc test.
Myc-tagged full-length Htt with 23Q or 73Q plasmid was obtained from the CHDI foundation. The full-length VCP wt and GFP-LC3B plasmids were obtained from Addgene. To construct the mitochondria-targeting VCP plasmid, CMV-mito-GEM-GECO1 was digested with BamHI and HindIII, and VCP was PCR-amplified and inserted into the plasmid backbone. Site mutation of the VCP plasmid was performed using a site-mutagenesis kit (Agilent Technologies, Inc.). Cells were transfected with TransIT-2020 (Mirus Bio, LLC) following the manufacturer's protocol.
Human cervix carcinoma cells (HeLa cells) and HEK293 cells were maintained in DMEM supplemented with 10% FBS and 1% (v/v) penicillin/streptomycin.
Supplementary Figure 4: Rational design of a peptide inhibitor to block VCP/Htt interaction. […] Quantitation of VCP/Htt binding was shown below the blot as the m ean of three independent experiments. […] The blots of the bindings of mtHtt/VCP were quantitated with NIH Image J software. The IC50 was calculated. […]

For test [2], the system named is HD patient-iPS cell derived neurons. In words: Mitochondrial mass (Mitotracker green). The format is cell-based, human. The following applies: 1 μM per day for 5 days. Here is the method: (§1) iPS cells from a normal subject and a HD patient (carrying 41 CAG repeats) were differentiated into neurons using the protocol from our previous studies. Briefly, iPS cells were plated onto 6-well plates precoated with 2.5% Matrigel and allowed to reach 90% confluence in feeder-free medium. For the first 10 days, cells were treated with SB431542 (10 μM; Tocris Bioscience) and Noggin (100 ng/ml) in Neural Media (NM) containing Neurobasal and DMEM (1:1), B27 supplement minus vitamin A (50 × , Invitrogen), N2 supplement (100 × , Invitrogen), GlutaMax (Invitrogen, 100 × ), FGF2 ([…]) and EGF ([…]), 100 units per ml penicillin and 100 μg ml^−1 streptomycin). […]
(§2) To determine mitochondrial mass in cultures, cells were stained with antibodies against Tom20 or stained with Mitotracker green. The fluorescent density of Tom20 (1:500) or mitotracker green was quantitated using NIH Image J software. […] The images were visualized by microscope and quantitation of the density of red fluorescence was carried out using NIH ImageJ software. For immunocytochemistry study, at least 100 cells per group were counted and quantitated by an observer blind to experimental conditions.

The test system is the same in test [3]. The test is described as follows: Lysosomal activity (Lyso-ID Red). The format is cell-based, human. The note with it: 1 μM per day for 5 days. As to the method: as §1, §2
Test [4] relates to YAC128 mice. The test is described as follows: Rotarod performance. The class given is in vivo, mouse. The following applies: YAC128, 3 mg/kg/day from 3 months; from 6 to 12 months of age, n=15–20. The source says:
YAC128 (FVB-Tg(YAC128)53Hay/J, JAX stock number: 004938) breeders (FVB/N genetic background) were purchased from Jackson Laboratories. The YAC128 mice contain a full-length human huntingtin gene modified with a 128 CAG repeat expansion in exon 1. The mice were mated, bred and genotyped in the animal facility of Case Western Reserve University. Male mice at the ages of 2, 3, 6, 9 and 12 months were used in the study.
YAC128 mice (Tg) and their age-matched wt littermates were implanted with an osmotic pump containing TAT control peptide or HV-3 peptide (3 mg/kg/day, each) starting from the age of 3 months. The pump was replaced once every month. By the age of 12 months, the treatments were terminated and the mouse samples were harvested for analysis.
The motor coordination and balance of YAC128 mice were tested on an accelerating Rotarod (IITC Life Sciences, Serials 8) at the ages of 2, 3, 6, 9 and 12 months. Training and baseline testing for motor function tasks were conducted at 2 months of age. For training, mice were given three 120-s trials per day at a fixed-speed of 15 r.p.m. for three consecutive days. During the testing phase, the Rotarod accelerated from 5 to 40 r.p.m. over 3 min; the maximum score was 300 s. Rotarod scores were the average of three trials per day (with 2 h rest between trials) for 3 consecutive days.
(In general: In the rotarod test animals must keep their balance on a rotating rod.)

Molecules are shown by their SMILES.

Consider `CSCC[C@H](NC(=O)[C@@H](NC(=O)[C@H](CC(C)C)NC(=O)[C@@H](NC(=O)[C@H](Cc1c[nH]cn1)NC(=O)CCCCCNC(=O)[C@H](CCCNC(=N)N)NC(=O)[C@H](CCCNC(=N)N)NC(=O)[C@H](CCCNC(=N)N)NC(=O)[C@H](CCC(N)=O)NC(=O)[C@H](CCCNC(=N)N)NC(=O)[C@H](CCCNC(=N)N)NC(=O)[C@H](CCCCN)NC(=O)[C@H](CCCCN)NC(=O)[C@H](CCCNC(=N)N)NC(=O)CNC(=O)[C@@H](N)Cc1ccc(O)cc1)C(C)C)C(C)C)C(=O)N[C@@H](CS)C(=O)N[C@@H](C)C(=O)N[C@H](C(N)=O)[C@@H](C)O` [HV-3], for which the IC50 in test [1] (0 to 4 µM, IP/WB quantitated, read-out: IC50 blocking VCP/mtHtt interaction) was 2110 nM. In test [1] (3 µM/day, n = 3), the “block of VCP/mtHtt interaction” value was “only HV-3 peptide significantly blocked the VCP/mtHtt interaction”. For the same compound, the mitochondrial mass result in test [2] was “corrected these aberrant events”. Besides, the lysosome hyperactivity entry in test [3] is reported as “corrected these aberrant events”. The rotarod performance entry in test [4] is “improved general movement activity and rotarod performance”.
